Tests used:
K-RAS G12D = target: T1, K-RAS G12D (Homo sapiens, UniProt P01116, G12D); test: Compound depletion assay, K-RAS G12D; assay type: binding; settings: G12D protein 20 μM, compound 8 μM, 25° C.
T1 construct: His tag; purchased Stratech
Method: (§1) Compound Depletion Assay Method
(§2) Lyophilized human K-RAS (12 Cys) protein (His tag) and human K-RAS (12 Asp) protein (His tag) were purchased from Stratech and reconstituted at 30 μM in water. The protein concentration of K-RAS G12C and K-RAS G12D was adjusted to 20 μM in K-RAS Assay Buffer (20 mM HEPES pH 7.5, 150 mM NaCl, 1 mM MgCl2). A 49 μl aliquot of protein solution was transferred to 1.5 ml eppendorfs and incubated at room temperature for 10 minutes. A 1 μl aliquot of compound solution in DMSO was added to the protein solutions in the 1.5 ml eppendorfs to initiate the reaction, with a final assay compound concentration of 8 μM. Reactions were agitated at 25° C., 700 rpm. At each time point (0, 30, 180, 360, 1440 minutes), 10 μl of the reaction mixture was removed, added to 30 μl quench solution (0.3% formic acid, 75 nM propranolol in acetonitrile) to stop the reaction and stored at 4° C. Once all reactions were quenched, the samples were centrifuged at 16000 g for 10 minutes to pellet the protein and salts. A 10 μl aliquot of supernatant containing compound was diluted in 50:50 acetonitrile:H2O in a 96 well plate. The plates were heat sealed and the samples analysed by LC-MS/MS to determine the concentration of compound remaining in the samples. To determine the reaction progress, the compound signal was normalized to the internal standard signal (propranolol). The decrease in free compound concentration is shown as a percentage over time, with the […] at time zero fixed at one hundred percent. Compound is assumed to be completely depleted when no longer detectable with a double blank sample as reference.

K-RAS G12C = target: T2, K-RAS G12C (Homo sapiens, UniProt P01116, G12C); test: Compound depletion assay, K-RAS G12C; assay type: binding; settings: G12C protein 20 μM, compound 8 μM, 25° C.
T2 construct: His tag; purchased Stratech
Method: as §1, §2

T2 sequence (P01116 1-188 isoform P01116-2 G12C): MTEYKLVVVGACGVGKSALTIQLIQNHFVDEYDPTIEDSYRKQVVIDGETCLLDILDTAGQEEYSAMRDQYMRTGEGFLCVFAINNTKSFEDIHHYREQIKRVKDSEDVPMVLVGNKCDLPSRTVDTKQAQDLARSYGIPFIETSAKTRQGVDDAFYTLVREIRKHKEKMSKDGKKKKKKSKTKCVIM
T1 sequence (P01116 1-188 isoform P01116-2 G12D): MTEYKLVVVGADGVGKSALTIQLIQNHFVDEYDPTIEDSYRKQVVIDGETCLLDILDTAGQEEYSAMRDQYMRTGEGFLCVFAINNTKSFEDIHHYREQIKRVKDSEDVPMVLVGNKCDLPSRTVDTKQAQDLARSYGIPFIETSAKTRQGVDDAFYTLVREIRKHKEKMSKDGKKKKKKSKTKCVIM

Compound	30 min Category (compound remaining at timepoint) (K-RAS G12D)	3 hr Category (compound remaining at timepoint) (K-RAS G12D)	6 hr Category (compound remaining at timepoint) (K-RAS G12D)	30 min Category (compound remaining at timepoint) (K-RAS G12C)	3 hr Category (compound remaining at timepoint) (K-RAS G12C)	6 hr Category (compound remaining at timepoint) (K-RAS G12C)
C=CC(=O)N1C[C@@H]2C[C@H]1CN2c1cc(C(=O)Nc2cc(O)cc3ccccc23)nc(OC[C@@H]2CCCN2C)n1 [Example 23, N-(3-hydroxy-1-naphthyl)-2-[[(2S)-1-methylpyrrolidin-2-yl]methoxy]-6-[(1S,4S)-2-prop-2-enoyl-2,5-diazabicyclo[2.2.1]heptan-5-yl]pyrimidine-4-carboxamide]	A (≥70% compound remaining at timepoint)	A (≥70% compound remaining at timepoint)	A (≥70% compound remaining at timepoint)	A (≥70% compound remaining at timepoint)	A (≥70% compound remaining at timepoint)	A (≥70% compound remaining at timepoint)
C=CC(=O)N1CCN(c2cc(C(=O)Nc3cc(O)cc4ccccc34)nc(-c3ccccc3)n2)C[C@@H]1CC#N [Example 24, 6-[(3S)-3-(cyanomethyl)-4-prop-2-enoyl-piperazin-1-yl]-N-(3-hydroxy-1-naphthyl)-2-phenyl-pyrimidine-4-carboxamide]	A (≥70% compound remaining at timepoint)	A (≥70% compound remaining at timepoint)	A (≥70% compound remaining at timepoint)	A (≥70% compound remaining at timepoint)	A (≥70% compound remaining at timepoint)	A (≥70% compound remaining at timepoint)
C=CC(=O)N1CCN(c2cc(C(=O)Nc3cc(O)cc4ccccc34)nc(-c3cccnc3)n2)C[C@@H]1CC#N [Example 25, 6-[(3S)-3-(cyanomethyl)-4-prop-2-enoyl-piperazin-1-yl]-N-(3-hydroxy-1-naphthyl)-2-(3-pyridyl)pyrimidine-4-carboxamide]	A (≥70% compound remaining at timepoint)	A (≥70% compound remaining at timepoint)	A (≥70% compound remaining at timepoint)	A (≥70% compound remaining at timepoint)	A (≥70% compound remaining at timepoint)	A (≥70% compound remaining at timepoint)
C=CC(=O)N1CCN(c2cc(C(=O)Nc3cc(O)cc4ccccc34)nc(-c3ccncc3)n2)C[C@@H]1CC#N [Example 26, 6-[(3S)-3-(cyanomethyl)-4-prop-2-enoyl-piperazin-1-yl]-N-(3-hydroxy-1-naphthyl)-2-(4-pyridyl)pyrimidine-4-carboxamide]	A (≥70% compound remaining at timepoint)	A (≥70% compound remaining at timepoint)	A (≥70% compound remaining at timepoint)	A (≥70% compound remaining at timepoint)	A (≥70% compound remaining at timepoint)	A (≥70% compound remaining at timepoint)
C=CC(=O)N1CCN(c2cc(C(=O)Nc3cc(O)cc4ccccc34)nc(NCCN3CCN(C)CC3)n2)C[C@@H]1CC#N [Example 27, 6-[(3S)-3-(cyanomethyl)-4-prop-2-enoyl-piperazin-1-yl]-N-(3-hydroxy-1-naphthyl)-2-[2-(4-methylpiperazin-1-yl)ethylamino]pyrimidine-4-carboxamide]	A (≥70% compound remaining at timepoint)	A (≥70% compound remaining at timepoint)	A (≥70% compound remaining at timepoint)	A (≥70% compound remaining at timepoint)	B (30%-70% compound remaining at timepoint)	C (≤30% compound remaining at timepoint)
C=CC(=O)N1CCN(c2cc(C(=O)Nc3cc(O)cc4ccccc34)nc(NCCN3CCOCC3)n2)C[C@@H]1CC#N [Example 28, 6-[(3S)-3-(cyanomethyl)-4-prop-2-enoyl-piperazin-1-yl]-N-(3-hydroxy-1-naphthyl)-2-(2-morpholinoethylamino)pyrimidine-4-carboxamide]	A (≥70% compound remaining at timepoint)	A (≥70% compound remaining at timepoint)	A (≥70% compound remaining at timepoint)	A (≥70% compound remaining at timepoint)	A (≥70% compound remaining at timepoint)	B (30%-70% compound remaining at timepoint)
C=CC(=O)N1CCN(c2cc(C(=O)Nc3cc(O)cc4ccccc34)nc(NCCN(C)C)n2)C[C@@H]1CC#N [Example 29, 6-[(3S)-3-(cyanomethyl)-4-prop-2-enoyl-piperazin-1-yl]-2-[2-(dimethylamino)ethylamino]-N-(3-hydroxy-1-naphthyl)pyrimidine-4-carboxamide]	A (≥70% compound remaining at timepoint)	A (≥70% compound remaining at timepoint)	A (≥70% compound remaining at timepoint)	A (≥70% compound remaining at timepoint)	B (30%-70% compound remaining at timepoint)	C (≤30% compound remaining at timepoint)
C=CC(=O)N1CCN(c2cc(C(=O)Nc3cc(O)cc4ccccc34)nc(NCCC3CCCN3C)n2)C[C@@H]1CC#N (stereo partly drawn) [Example 30, 6-[(3S)-3-(cyanomethyl)-4-prop-2-enoyl-piperazin-1-yl]-N-(3-hydroxy-1-naphthyl)-2-[2-(1-methylpyrrolidin-2-yl)ethylamino]pyrimidine-4-carboxamide]	A (≥70% compound remaining at timepoint)	A (≥70% compound remaining at timepoint)	A (≥70% compound remaining at timepoint)	B (30%-70% compound remaining at timepoint)	C (≤30% compound remaining at timepoint)	C (≤30% compound remaining at timepoint)
C=CC(=O)N1CCN(c2cc(C(=O)Nc3cc(O)cc4ccccc34)nc(-c3ccccn3)n2)C[C@@H]1CC#N [Example 31, 6-[(3S)-3-(cyanomethyl)-4-prop-2-enoyl-piperazin-1-yl]-N-(3-hydroxy-1-naphthyl)-2-(2-pyridyl)pyrimidine-4-carboxamide]	A (≥70% compound remaining at timepoint)	A (≥70% compound remaining at timepoint)	A (≥70% compound remaining at timepoint)	A (≥70% compound remaining at timepoint)	B (30%-70% compound remaining at timepoint)	B (30%-70% compound remaining at timepoint)
C=CC(=O)N1CCN(c2cc(C(=O)Nc3cc(O)cc4ccccc34)nc(-c3ccc4cnn(C)c4c3)n2)C[C@@H]1CC#N [Example 32, 6-[(3S)-3-(cyanomethyl)-4-prop-2-enoyl-piperazin-1-yl]-N-(3-hydroxy-1-naphthyl)-2-(1-methylindazol-6-yl)pyrimidine-4-carboxamide]	A (≥70% compound remaining at timepoint)	A (≥70% compound remaining at timepoint)	A (≥70% compound remaining at timepoint)	A (≥70% compound remaining at timepoint)	A (≥70% compound remaining at timepoint)	A (≥70% compound remaining at timepoint)
